Reference: publication PMC4811503, “A method for quantification of exportin-1 (XPO1) occupancy by Selective Inhibitor of Nuclear Export (SINE) compounds” (Oncotarget, 2015)
“And” between values parts separate entries of the source, which are not always exact repeats. Identical values can stand only once. Like-named read-outs stand apart in the source and are kept apart here.

Tests used:
HCT-116 = assay: MTT cytotoxicity assay; type: cell-based; settings: Homo sapiens
AML2 = assay: MTT cytotoxicity assay; type: cell-based
MV-4–11 = assay: MTT cytotoxicity assay; type: cell-based; settings: Homo sapiens, MV4-11, read-out: Selinexor IC50 (μM)
HT1080 = assay: MTT cytotoxicity assay; type: cell-based; settings: Homo sapiens, HT-1080, read-out: Selinexor IC50 (μM)
HEL = assay: MTT cytotoxicity assay; type: cell-based; settings: Homo sapiens, read-out: Selinexor IC50 (μM)
THP-1 = assay: MTT cytotoxicity assay; type: cell-based; settings: Homo sapiens, read-out: Selinexor IC50 (μM)
HT1080 resistant = assay: MTT cytotoxicity assay; type: cell-based; settings: Homo sapiens, HT-1080, read-out: Selinexor IC50 (μM)
A549 = assay: MTT cytotoxicity assay; type: cell-based; settings: Homo sapiens, read-out: Selinexor IC50 (μM)
UCH1 = assay: MTT cytotoxicity assay; type: cell-based; settings: read-out: Selinexor IC50 (μM)
LS174T = assay: MTT cytotoxicity assay; type: cell-based; settings: Homo sapiens, read-out: Selinexor IC50 (μM)
ASPS-KY = assay: MTT cytotoxicity assay; type: cell-based; settings: read-out: Selinexor IC50 (μM)
[1] = humans; clinical PK analysis, no reference given; cited from earlier work
XPO1 [2] = biological target: T1, XPO1 (Homo sapiens, UniProt O14980); assay: XPO1 occupancy assay in cultured cell lines (biotinylated probe pull-down, Simple Western); type: cell-based; parameters: Cells were collected, washed with PBS, and lysed with RIPA Buffer; endogenous in cells; host or cells: MM.1S
T1 sequence (O14980 whole entry): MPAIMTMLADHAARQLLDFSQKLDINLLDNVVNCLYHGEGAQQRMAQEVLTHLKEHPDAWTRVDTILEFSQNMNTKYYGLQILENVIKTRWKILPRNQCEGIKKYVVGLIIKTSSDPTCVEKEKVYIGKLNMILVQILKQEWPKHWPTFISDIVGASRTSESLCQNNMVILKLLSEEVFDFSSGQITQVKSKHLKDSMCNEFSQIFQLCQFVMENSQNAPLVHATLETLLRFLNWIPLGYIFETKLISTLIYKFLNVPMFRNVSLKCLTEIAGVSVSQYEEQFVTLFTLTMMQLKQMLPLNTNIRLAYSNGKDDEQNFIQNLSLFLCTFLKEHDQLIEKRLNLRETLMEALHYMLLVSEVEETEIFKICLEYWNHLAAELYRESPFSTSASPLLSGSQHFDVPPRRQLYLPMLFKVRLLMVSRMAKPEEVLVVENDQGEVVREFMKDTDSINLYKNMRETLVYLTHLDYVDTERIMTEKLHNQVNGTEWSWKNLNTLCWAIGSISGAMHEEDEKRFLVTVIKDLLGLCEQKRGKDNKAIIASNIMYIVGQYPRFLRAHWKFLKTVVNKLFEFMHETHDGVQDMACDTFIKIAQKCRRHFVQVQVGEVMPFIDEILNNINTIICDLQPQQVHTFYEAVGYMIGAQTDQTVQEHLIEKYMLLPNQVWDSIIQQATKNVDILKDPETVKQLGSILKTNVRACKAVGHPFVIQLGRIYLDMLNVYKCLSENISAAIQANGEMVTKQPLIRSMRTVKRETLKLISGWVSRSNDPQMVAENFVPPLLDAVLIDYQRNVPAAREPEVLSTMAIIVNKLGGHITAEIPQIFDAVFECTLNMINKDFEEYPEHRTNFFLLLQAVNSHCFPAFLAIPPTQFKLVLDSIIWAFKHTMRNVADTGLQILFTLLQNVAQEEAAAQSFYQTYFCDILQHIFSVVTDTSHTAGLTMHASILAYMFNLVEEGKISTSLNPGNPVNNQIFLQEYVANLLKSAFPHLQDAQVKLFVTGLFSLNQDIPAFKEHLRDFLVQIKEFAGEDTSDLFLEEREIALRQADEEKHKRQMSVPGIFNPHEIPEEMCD
Description: b-LMB was tested for the ability to bind XPO1 protein. First, a dose-response curve was generated by exposing MM.1S cells to increasing concentrations of b-LMB (0 – 500 nM) for 1.5 hours in culture. The cells were then collected, lysed, and a portion of the lysate (input) was reserved prior to incubating the remaining lysate with streptavidin-tagged beads overnight. After extensive washes, b-LMB bound XPO1 was eluted from the beads, and XPO1 from both input and bead eluate was detected and quantified by Simple Western on Peggy Sue. Simple Western allows for the chemiluminescent detection of proteins from small volumes of samples that are run through a matrix-filled capillary. The signal is detected by a CCD camera which generates a digital image and then reports quantitative results. […] The protein signals for XPO1 detected by Simple Western in Figure 2A were reported as mean peak areas and were used to compare levels of XPO1 present in each sample to produce a graphical representation of the ratio of free XPO1 detected at each concentration of b-LMB (Figure 2B). “Ratio of bound XPO1” is defined as the ratio of the mean peak area of b-LMB bound XPO1 detected in the eluate compared to the mean peak area of all XPO1 detected in the input lysate, while “free-fraction” refers to the amount of XPO1 not occupied by SINE compound, as described later.
The cells were then collected and processed for the XPO1 occupancy assay. […] For these assays, the “ratio of free-fraction XPO1” is calculated by dividing the mean peak areas of XPO1 occupied by b-LMB (from the eluate) by the total amount of XPO1 (from the input).
(§1) Cells were collected, washed with PBS, and lysed with RIPA Buffer (Thermo Scientific) with protease inhibitors [Complete Ultra Tablets, Mini, EDTA-free, Easy pack (Roche), PhosStop Easy (Roche)]. A portion of the lysate was reserved (input) while the rest was added to washed Dynabeads MyOne Streptavidin T1 (Invitrogen) with RIPA Buffer. Samples were incubated overnight with constant rotation at 4°C. Beads were then washed 5 times with modified RIPA (150 mM NaCl, 50 mM Tris, 1% NP-40, 0.1% Na deoxycholate, 1 mM EDTA, pH 7.8). The reserved portion of lysates (input) and the beads were each mixed with Protein Simple buffer (Protein Simple), DTT (Invitrogen), and fluorescent standards (Protein Simple), then boiled at 95°C for 10 min. Eluates and inputs were analyzed using a capillary western method (Peggy Sue; Protein Simple) with the following primary antibodies: XPO1 (Santa Cruz) and β-actin (Santa Cruz). Capillary westerns were performed by SBH Sciences (Natick, MA). Peak areas corresponding to the protein molecular weight of XPO1 and actin were compared for sample inputs, while the ratio of XPO1 peak areas in eluate to input (ratio of bound or free-fraction XPO1) versus compound concentration were used in XLFit model 205 to calculate 50% and 90% occupancy curves.

XPO1 [3] = biological target: T1, XPO1; assay: XPO1 occupancy assay in human PBMCs treated ex vivo; type: cell-based; parameters: performed ex vivo on PBMCs isolated from pooled healthy donor blood; host or cells: human PBMCs from pooled healthy donor blood, fresh or revived after cryopreservation; settings: then 1 nM b-LMB 1 hour
Description: as §1

[4] = read-out: Selinexor IC50 (μM), MTT

## O=C(/C=C\n1cnc(-c2cc(C(F)(F)F)cc(C(F)(F)F)c2)n1)NNc1cnccn1 [Selinexor, selinexor]
HCT-116; 72 hours, read-out: IC50
  IC50: 0.05 µM
HCT-116; [4]
  IC50: 0.05 µM
AML2; 72 hours, read-out: IC50
  IC50: 0.09 µM
AML2; [4]
  IC50: 0.09 µM
MV-4–11
  IC50: 0.02 µM
HT1080
  IC50: 0.07 µM
HEL
  IC50: 0.35 µM
THP-1
  IC50: 1.06 µM
HT1080 resistant
  IC50: 2.4 µM
A549
  IC50: 3 µM
UCH1
  IC50: 7 µM
LS174T
  IC50: > 10 µM
ASPS-KY
  IC50: > 10 µM
[1]
  Tmax: ~4 h
  near complete plasma clearance by (time post-dose): ~24 h
XPO1 [2]; A549
  90% Occupancy selinexor: 0.56 µM
XPO1 [2]; AML2
  90% Occupancy selinexor: 0.22 µM
XPO1 [2]; AML3
  90% Occupancy selinexor: 0.46 µM
XPO1 [2]; ASPS-KY
  90% Occupancy selinexor: 0.72 µM
XPO1 [2]; HCT-116
  90% Occupancy selinexor: 0.76 µM
XPO1 [2]; HEL
  90% Occupancy selinexor: 0.31 µM
XPO1 [2]; HT1080
  90% Occupancy selinexor: 1.35 µM
XPO1 [2]; HT1080 resistant
  90% Occupancy selinexor: 1.67 µM
XPO1 [2]; Kasumi-6
  90% Occupancy selinexor: 0.57 µM
XPO1 [2]; LS174T
  90% Occupancy selinexor: 0.38 µM
XPO1 [2]; MM.1S
  90% Occupancy selinexor: 0.48 µM
XPO1 [2]; MM.1S cells, SINE compound 1 hour, then 1 nM b-LMB […]
  Avg 90% Occupancy (μM): 0.52 +/− 0.05 (n = 2) μM
XPO1 [2]; MM.1S cells, followed by 0.1 μM KPT-9058 as probe
  90% Occupancy: 0.1 µM and 0.10 µM
XPO1 [2]; MV-4–11
  90% Occupancy selinexor: 0.61 µM
XPO1 [2]; Rev-GFP U2OS cells, selinexor 1 hour, then 1 nM b-LMB […]
  90% of XPO1 occupancy: 0.48 µM
XPO1 [2]; Rev-GFP U2OS, selinexor 4 hours, 0 hours post washout, 1 nM b-LMB
  90% Occupancy: 0.16 µM
XPO1 [2]; Rev-GFP U2OS, selinexor 4 hours, 4 hours post washout, 1 nM b-LMB
  90% Occupancy: 2.87 µM
XPO1 [2]; Rev-GFP U2OS, selinexor 4 hours, 24 hours post washout, 1 nM b-LMB
  90% Occupancy: > 10 µM
XPO1 [2]; Rev-GFP U2OS, selinexor 4 hours, 48 hours post washout, 1 nM b-LMB
  90% Occupancy: > 10 µM
XPO1 [2]; Rev-GFP U2OS, selinexor 4 hours, 72 hours post washout, 1 nM b-LMB
  90% Occupancy: > 10 µM
XPO1 [2]; Rev-GFP U2OS, selinexor 4 hours, 96 hours post washout, 1 nM b-LMB
  90% Occupancy: > 10 µM
XPO1 [2]; THP-1
  90% Occupancy selinexor: 0.94 µM
XPO1 [2]; UCH1
  90% Occupancy selinexor: 0.65 µM
XPO1 [2]; UCH2
  90% Occupancy selinexor: 0.89 µM
XPO1 [3]; fresh human PBMCs, selinexor 1 hour
  90% Occupancy: > 0.5 µM
XPO1 [3]; human PBMCs revived from cryopreservation, selinexor 4 hours, washed
  90% Occupancy: 0.04 µM
